Experimental data from ChEMBL document CHEMBL5653631, “A Potent and Selective ULK1 Inhibitor Suppresses Autophagy and Sensitizes Cancer Cells to Nutrient Stress” (iScience, 2018).

Assays:
[1] = molecular target: Mitogen-activated protein kinase kinase kinase 10 (Homo sapiens) (UniProt Q02779); assay: Inhibition of human recombinant MLK2 at 40 nM related to control ULK1
[2] = molecular target: Macrophage colony-stimulating factor 1 receptor (Homo sapiens) (UniProt P07333); assay: Inhibition of human recombinant FMS at 40 nM related to control ULK1
Sequence of Macrophage colony-stimulating factor 1 receptor (Homo sapiens) (P07333 whole entry): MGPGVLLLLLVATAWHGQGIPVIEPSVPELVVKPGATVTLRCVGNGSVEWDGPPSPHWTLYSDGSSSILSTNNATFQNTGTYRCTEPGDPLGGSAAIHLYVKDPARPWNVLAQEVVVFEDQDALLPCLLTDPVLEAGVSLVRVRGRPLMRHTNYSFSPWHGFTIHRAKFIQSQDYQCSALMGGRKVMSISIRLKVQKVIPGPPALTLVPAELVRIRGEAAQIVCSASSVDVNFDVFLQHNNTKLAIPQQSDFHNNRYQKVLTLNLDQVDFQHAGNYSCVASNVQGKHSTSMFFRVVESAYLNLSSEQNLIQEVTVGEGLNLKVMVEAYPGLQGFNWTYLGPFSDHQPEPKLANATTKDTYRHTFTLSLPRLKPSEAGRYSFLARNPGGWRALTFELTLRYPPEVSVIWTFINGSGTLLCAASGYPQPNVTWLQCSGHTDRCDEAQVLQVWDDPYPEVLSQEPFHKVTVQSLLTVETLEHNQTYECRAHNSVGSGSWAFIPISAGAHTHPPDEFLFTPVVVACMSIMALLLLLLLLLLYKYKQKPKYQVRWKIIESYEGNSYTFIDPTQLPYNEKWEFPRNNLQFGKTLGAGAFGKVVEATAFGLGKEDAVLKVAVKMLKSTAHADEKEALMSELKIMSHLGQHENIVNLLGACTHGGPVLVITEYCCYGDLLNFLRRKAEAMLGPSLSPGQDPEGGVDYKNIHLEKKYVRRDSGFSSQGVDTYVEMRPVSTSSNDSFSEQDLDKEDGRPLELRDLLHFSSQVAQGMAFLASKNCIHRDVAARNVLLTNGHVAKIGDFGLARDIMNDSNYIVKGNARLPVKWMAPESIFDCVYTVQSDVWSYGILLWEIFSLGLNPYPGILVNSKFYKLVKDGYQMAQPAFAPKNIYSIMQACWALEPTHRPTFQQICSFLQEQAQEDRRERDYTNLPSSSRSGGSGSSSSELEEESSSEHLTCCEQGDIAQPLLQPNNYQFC

[3] = molecular target: Tau-tubulin kinase 1 (Homo sapiens) (UniProt Q5TCY1); assay: Inhibition of human recombinant TTBK1 at 40 nM related to control ULK1
Sequence of Tau-tubulin kinase 1 (Homo sapiens) (Q5TCY1 whole entry): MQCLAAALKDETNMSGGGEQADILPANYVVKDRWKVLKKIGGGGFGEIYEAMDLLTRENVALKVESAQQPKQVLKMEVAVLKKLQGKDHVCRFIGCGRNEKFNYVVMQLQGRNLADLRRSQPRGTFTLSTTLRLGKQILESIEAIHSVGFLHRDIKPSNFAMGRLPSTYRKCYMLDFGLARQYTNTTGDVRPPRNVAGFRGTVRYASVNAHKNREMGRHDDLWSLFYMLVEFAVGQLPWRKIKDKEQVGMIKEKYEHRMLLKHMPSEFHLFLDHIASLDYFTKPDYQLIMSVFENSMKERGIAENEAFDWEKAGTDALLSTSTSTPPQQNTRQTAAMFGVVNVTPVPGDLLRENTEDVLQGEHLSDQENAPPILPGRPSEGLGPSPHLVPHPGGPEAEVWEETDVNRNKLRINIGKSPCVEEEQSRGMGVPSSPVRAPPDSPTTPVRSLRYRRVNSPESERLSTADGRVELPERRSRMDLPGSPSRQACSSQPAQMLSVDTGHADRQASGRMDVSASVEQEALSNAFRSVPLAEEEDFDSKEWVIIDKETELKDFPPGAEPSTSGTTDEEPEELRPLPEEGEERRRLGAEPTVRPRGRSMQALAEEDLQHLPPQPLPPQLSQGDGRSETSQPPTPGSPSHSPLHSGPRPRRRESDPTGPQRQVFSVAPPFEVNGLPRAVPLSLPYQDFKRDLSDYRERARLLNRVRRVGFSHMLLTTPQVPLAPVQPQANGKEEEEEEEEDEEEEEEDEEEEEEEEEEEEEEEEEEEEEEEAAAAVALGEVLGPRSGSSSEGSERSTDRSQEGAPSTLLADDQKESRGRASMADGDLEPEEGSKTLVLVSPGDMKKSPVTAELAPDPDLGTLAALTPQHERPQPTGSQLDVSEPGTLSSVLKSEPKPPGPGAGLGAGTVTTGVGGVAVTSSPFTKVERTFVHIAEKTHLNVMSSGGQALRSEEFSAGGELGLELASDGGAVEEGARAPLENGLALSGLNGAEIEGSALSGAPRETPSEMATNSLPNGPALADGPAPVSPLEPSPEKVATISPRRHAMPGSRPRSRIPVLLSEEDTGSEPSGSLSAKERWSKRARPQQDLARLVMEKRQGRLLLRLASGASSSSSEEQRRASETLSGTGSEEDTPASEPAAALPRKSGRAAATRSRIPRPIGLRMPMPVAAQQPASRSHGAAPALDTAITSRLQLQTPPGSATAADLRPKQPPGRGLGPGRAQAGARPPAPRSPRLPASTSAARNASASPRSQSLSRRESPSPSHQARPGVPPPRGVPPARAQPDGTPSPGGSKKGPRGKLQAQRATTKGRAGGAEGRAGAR

[4] = molecular target: Cyclin-dependent kinase 5 (Homo sapiens) (UniProt Q00535); assay: Inhibition of human recombinant CDK5 at 40 nM related to control ULK1
[5] = molecular target: Fibroblast growth factor receptor 3 (Homo sapiens) (UniProt P22607); assay: Inhibition of human recombinant FGFR3 at 500 nM related to control ULK1
Sequence of Fibroblast growth factor receptor 3 (Homo sapiens) (P22607 23-806 limits assumed): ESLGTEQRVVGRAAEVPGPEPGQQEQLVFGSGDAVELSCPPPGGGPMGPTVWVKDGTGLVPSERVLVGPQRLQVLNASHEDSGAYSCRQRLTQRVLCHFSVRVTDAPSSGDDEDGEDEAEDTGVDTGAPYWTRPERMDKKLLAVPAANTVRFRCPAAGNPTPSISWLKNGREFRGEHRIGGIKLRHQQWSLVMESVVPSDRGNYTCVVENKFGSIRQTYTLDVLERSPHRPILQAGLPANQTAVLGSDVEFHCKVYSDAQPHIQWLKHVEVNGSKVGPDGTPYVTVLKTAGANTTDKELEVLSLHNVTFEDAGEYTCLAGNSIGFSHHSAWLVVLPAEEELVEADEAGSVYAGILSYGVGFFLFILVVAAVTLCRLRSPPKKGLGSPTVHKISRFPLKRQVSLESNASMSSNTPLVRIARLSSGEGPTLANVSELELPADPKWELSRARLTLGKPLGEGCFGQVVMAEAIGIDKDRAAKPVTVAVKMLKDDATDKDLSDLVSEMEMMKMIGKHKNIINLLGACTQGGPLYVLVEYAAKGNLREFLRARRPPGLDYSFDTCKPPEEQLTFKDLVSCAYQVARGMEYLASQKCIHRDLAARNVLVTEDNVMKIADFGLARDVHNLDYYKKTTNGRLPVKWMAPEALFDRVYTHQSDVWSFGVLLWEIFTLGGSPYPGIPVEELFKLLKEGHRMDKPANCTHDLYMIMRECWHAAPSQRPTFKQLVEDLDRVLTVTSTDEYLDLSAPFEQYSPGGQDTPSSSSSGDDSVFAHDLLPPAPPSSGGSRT

[6] = molecular target: T1, Serine/threonine-protein kinase 3 (Homo sapiens) (UniProt Q13188); assay: Inhibition of human recombinant MST2 at 500 nM related to control ULK1
T1 sequence (whole entry): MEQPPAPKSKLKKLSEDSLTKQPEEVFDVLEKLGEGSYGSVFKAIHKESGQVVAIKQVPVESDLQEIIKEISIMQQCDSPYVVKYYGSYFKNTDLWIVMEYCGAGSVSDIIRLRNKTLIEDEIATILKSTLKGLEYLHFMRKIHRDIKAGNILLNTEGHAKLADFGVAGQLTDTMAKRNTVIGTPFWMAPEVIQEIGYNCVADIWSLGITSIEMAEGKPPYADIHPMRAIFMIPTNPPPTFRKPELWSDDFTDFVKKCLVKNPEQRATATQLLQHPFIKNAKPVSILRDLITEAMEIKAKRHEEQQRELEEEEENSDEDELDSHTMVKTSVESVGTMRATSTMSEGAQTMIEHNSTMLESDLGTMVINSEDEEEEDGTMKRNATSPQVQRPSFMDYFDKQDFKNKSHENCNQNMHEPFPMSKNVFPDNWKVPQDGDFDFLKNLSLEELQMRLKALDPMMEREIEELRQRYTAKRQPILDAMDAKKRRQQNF

[7] = molecular target: Serine/threonine-protein kinase PAK 3 (Homo sapiens) (UniProt O75914); assay: Inhibition of human recombinant PAK3 at 15 nM related to control ULK1
Sequence of Serine/threonine-protein kinase PAK 3 (Homo sapiens) (O75914 whole entry, looked up): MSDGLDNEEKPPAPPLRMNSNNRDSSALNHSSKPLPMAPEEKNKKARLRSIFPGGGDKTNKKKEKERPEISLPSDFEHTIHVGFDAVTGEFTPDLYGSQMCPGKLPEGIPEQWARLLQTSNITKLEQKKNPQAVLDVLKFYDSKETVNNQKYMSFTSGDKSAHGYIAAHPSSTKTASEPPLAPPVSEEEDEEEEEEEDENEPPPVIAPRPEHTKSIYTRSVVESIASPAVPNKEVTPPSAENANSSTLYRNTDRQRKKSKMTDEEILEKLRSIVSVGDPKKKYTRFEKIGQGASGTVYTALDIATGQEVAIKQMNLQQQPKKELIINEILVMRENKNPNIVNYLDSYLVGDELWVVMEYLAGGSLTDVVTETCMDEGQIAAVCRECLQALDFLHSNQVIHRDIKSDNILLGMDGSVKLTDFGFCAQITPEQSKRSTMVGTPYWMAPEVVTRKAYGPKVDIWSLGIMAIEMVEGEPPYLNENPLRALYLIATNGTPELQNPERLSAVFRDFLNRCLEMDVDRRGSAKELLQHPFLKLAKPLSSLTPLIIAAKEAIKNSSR

[8] = molecular target: T2, Mitogen-activated protein kinase kinase kinase 5 (Homo sapiens) (UniProt Q99683); assay: Inhibition of human recombinant MAP3K5 at 15 nM in presence of ATP by radiometric assay relative to control
T2 sequence (whole entry): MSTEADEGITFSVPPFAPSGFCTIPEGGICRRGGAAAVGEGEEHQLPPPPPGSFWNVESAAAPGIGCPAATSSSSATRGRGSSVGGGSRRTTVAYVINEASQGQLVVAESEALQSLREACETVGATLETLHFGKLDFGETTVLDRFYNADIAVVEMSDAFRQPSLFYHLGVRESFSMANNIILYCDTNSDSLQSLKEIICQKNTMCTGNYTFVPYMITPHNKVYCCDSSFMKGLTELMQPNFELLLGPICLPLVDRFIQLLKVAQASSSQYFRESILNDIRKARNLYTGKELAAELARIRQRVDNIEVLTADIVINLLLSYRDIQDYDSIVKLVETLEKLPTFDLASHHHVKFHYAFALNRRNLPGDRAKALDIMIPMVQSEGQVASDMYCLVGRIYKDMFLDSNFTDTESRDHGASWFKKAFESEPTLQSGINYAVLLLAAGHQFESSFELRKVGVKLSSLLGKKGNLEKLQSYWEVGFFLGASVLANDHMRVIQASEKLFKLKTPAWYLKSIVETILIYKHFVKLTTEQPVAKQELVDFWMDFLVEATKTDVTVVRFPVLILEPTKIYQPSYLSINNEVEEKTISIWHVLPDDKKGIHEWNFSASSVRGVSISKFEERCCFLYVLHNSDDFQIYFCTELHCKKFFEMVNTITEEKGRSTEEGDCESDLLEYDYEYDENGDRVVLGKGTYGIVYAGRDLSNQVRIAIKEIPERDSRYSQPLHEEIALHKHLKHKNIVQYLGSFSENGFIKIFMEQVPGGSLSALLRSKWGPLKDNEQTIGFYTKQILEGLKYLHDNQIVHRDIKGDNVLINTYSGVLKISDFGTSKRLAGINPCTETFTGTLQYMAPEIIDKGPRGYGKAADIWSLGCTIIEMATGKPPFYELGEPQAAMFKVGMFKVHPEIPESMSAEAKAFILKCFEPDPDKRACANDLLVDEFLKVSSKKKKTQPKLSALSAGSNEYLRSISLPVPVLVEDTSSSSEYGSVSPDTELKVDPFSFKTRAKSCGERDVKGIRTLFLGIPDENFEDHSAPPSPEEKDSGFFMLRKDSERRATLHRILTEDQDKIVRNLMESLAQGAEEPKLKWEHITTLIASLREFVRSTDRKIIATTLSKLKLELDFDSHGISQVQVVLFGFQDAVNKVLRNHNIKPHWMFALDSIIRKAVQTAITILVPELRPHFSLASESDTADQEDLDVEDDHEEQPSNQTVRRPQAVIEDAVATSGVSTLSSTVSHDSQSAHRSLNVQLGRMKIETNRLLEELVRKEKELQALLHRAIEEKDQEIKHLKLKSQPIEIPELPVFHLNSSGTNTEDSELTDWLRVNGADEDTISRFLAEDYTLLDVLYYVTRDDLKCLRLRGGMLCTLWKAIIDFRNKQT

[9] = molecular target: Casein kinase II subunit alpha (Homo sapiens) (UniProt P68400); assay: Inhibition of human recombinant CK2a1 at 15 nM related to control ULK1
Sequence of Casein kinase II subunit alpha (Homo sapiens) (P68400 whole entry, looked up): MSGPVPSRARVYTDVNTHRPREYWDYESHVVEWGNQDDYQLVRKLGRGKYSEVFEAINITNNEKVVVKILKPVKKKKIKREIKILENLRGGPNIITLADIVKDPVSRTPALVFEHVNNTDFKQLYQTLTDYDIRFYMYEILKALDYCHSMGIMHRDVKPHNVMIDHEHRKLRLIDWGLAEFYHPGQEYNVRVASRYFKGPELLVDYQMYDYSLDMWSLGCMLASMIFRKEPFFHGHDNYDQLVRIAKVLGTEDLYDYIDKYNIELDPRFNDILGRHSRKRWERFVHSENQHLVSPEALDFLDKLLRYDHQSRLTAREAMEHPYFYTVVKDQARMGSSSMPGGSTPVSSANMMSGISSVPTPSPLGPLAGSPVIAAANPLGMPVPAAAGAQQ

[10] = molecular target: T3, Dual specificity tyrosine-phosphorylation-regulated kinase 2 (Homo sapiens) (UniProt Q92630); assay: Inhibition of human recombinant DYRK2 at 15 nM related to control ULK1
T3 sequence (whole entry): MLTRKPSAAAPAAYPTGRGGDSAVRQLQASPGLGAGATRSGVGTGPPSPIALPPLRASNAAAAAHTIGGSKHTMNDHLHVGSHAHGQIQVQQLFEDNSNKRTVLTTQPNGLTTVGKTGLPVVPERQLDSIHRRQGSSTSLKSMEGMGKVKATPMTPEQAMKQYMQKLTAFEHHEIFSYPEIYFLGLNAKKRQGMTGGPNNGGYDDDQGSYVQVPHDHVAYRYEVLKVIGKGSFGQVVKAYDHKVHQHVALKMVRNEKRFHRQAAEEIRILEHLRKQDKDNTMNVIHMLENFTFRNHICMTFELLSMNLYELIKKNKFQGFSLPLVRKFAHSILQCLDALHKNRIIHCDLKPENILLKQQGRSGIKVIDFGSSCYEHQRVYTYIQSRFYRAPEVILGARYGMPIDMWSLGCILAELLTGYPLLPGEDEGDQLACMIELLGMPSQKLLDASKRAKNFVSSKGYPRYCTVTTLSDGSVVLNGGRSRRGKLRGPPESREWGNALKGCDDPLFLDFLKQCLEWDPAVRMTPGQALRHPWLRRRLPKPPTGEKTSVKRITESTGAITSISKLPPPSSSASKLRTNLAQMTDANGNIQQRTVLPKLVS

Sequence of Mitogen-activated protein kinase kinase kinase 10 (Homo sapiens) (Q02779 whole entry, looked up): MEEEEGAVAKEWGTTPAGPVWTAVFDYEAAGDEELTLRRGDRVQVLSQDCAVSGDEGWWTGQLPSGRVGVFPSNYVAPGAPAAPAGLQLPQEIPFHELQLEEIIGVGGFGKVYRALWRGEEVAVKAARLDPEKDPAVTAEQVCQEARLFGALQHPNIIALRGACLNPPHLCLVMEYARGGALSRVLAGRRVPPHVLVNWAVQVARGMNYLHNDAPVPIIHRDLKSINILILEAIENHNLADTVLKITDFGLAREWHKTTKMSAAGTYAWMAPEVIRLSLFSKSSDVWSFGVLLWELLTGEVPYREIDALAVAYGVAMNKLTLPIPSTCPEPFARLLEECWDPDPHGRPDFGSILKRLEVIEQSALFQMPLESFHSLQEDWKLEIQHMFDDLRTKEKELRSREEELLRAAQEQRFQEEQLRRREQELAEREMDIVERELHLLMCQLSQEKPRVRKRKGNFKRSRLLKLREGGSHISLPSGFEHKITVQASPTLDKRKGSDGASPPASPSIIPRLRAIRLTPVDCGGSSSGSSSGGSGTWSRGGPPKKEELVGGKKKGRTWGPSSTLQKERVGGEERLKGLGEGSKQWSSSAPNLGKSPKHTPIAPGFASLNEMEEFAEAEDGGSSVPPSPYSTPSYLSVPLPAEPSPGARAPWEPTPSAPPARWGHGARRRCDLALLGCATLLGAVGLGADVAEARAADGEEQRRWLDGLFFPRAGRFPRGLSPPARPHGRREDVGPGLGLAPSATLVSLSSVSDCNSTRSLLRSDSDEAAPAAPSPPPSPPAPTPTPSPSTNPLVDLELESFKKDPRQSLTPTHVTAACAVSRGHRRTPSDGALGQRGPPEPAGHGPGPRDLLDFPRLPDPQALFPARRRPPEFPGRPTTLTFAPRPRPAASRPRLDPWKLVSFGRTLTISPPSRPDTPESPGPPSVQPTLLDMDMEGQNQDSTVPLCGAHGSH

Work on `O=C(N[C@@H](C1CC1)C(F)(F)F)c1cc(-c2cnn3cc(-c4ccc(F)cc4)cnc23)cs1` yielded a fold change (FC) [1] of 0, a fold change (FC) [2] of 0.01 and a fold change (FC) [3] of 0. It also gave a fold change (FC) [4] of 0.64.

Molecule `CNC(=O)c1ccccc1Oc1nc(Nc2cc(OC)c(OC)c(OC)c2)ncc1Br` has a fold change (FC) [5] of 0.57 and a fold change (FC) [6] of 0.

With `CC(C)[C@H](NC(=O)c1cc(-c2cnn3cc(-c4ccc(OCCN5CCCCC5)cc4)cnc23)cs1)C(F)(F)F` the fold change (FC) [7] was 0.05, the inhibition [8] was 0% and the fold change (FC) [9] was 0. For the same molecule, the fold change (FC) [10] was 0.09.
